Measured values taken from the supplement of paper PMC11208160.

Assay: recombinant barcode read abundance after kanamycin selection (control-corrected) (log10(CPM+1)); higher = more efficient recombination; sequences stand for … in AGTGCAGAGAAAATCGGCCAGTTTTCTCTGCCTGCAGTCCGCATGCCGT…AGATTTATGCAGCGGACTGCCTTTCTCCCAAAGTGATAAACCGGACAGTATCATGGACCGGTTTTCCCGGTAATCCGTATTTGCAAGGTTGGTTTCACT; site = the 11-nt target
Procedure, shortened: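 Targets and IS621 bridge RNA target-binding loops were paired in oligos, each with a promoter, a barcode and the J23119-driven first 104 bridge RNA bases. A vector carrying the remaining 73 bp and a T7-inducible recombinase received these by Gibson cloning, and the pool was co-electroporated into E. coli with a donor plasmid. Duplicate plates contained chloramphenicol/ampicillin LB agar (control) or chloramphenicol/ampicillin/kanamycin with 0.1 mM IPTG. Recombination efficiency comes from averaged, control-corrected counts per million of recombinant-junction barcodes, reported as log10(CPM+1).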
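Note: IS621 recombinase and bridge RNA in Escherichia coli cells.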

Row | Sequence | recombinant barcode read abundance (log10)
1 | ATTTGACCTTGGGTTCTAACCTGTTGCCG (site ACTTGACCTCT) | 0.205
2 | ATTTGACCTTGGGTTCTAACCTGTTGCCG (site ATTTGACCTCG) | 0.67
3 | ATTTGAGCTTGGGTTCTAACCTGTTGCTG (site ATTTGAGCTCA) | 0.732
4 | ATTTGAGCTTGGGTTCTAACCTGTTGCTG (site GTATGAGCTCA) | 0.0966
5 | CAAAAGGCTTGGGTTCTAACCTGTTGCCG (site CAAAAGGCTCG) | 1.18
6 | CAAAAGGCTTGGGTTCTAACCTGTTGCCG (site GTGTCCTCTAC) | 0.239
7 | CAAACACCTTGGGTTCTAACCTGTTGCTT (site CAAACACCTAA) | 0.712
8 | CAAACACCTTGGGTTCTAACCTGTTGCTT (site CAACCACCTAA) | 0.0879
9 | CAAACACCTTGGGTTCTAACCTGTTGCTT (site CAAGCACCTAA) | 0.0323
10 | CAAACACCTTGGGTTCTAACCTGTTGCTT (site CAATCACCTAA) | 0.426
11 | CAAACCTCTTGGGTTCTAACCTGTTGCAC (site CAAACCTCTGT) | 1.97
12 | CAAACCTCTTGGGTTCTAACCTGTTGCAC (site TCTTAGACTTC) | 0.0456
13 | CAAAGCCCTTGGGTTCTAACCTGTTGCCT (site CAAAGCCCTAG) | 1.9
14 | CAAAGCCCTTGGGTTCTAACCTGTTGCCT (site CGGAGCCCTAG) | 0.349
15 | CAACCGACTTGGGTTCTAACCTGTTGCCT (site CAACCGACTAG) | 1.61
16 | CAACCGACTTGGGTTCTAACCTGTTGCCT (site CAACCGCCTAG) | 0.265
17 | CAACCGACTTGGGTTCTAACCTGTTGCCT (site CAACCGGCTAG) | 0.0866
18 | CAACCGACTTGGGTTCTAACCTGTTGCCT (site CAACCGTCTAG) | 0.0239
19 | CAACCGCCTTGGGTTCTAACCTGTTGCCT (site CAACCGACTAG) | 0.411
20 | CAACCGCCTTGGGTTCTAACCTGTTGCCT (site CAACCGCCTAG) | 1.43
21 | CAACCGCCTTGGGTTCTAACCTGTTGCCT (site CAACCGGCTAG) | 0.402
22 | CAACCGCCTTGGGTTCTAACCTGTTGCCT (site CAACCGTCTAG) | 0.864

Row | Sequence | recombinant barcode read abundance (log10)
23 | CAACCTACTTGGGTTCTAACCTGTTGCCT (site CAACCTACTAG) | 0.586
24 | CAACCTACTTGGGTTCTAACCTGTTGCCT (site CAATCTACTAG) | 0.121
25 | CAACTTCCTTGGGTTCTAACCTGTTGCGT (site CAACTTCCTAC) | 1.18
26 | CAACTTCCTTGGGTTCTAACCTGTTGCGT (site CGGCTTCCTAC) | 0.496
27 | CAAGACGCTTGGGTTCTAACCTGTTGCCT (site CAAGACGCTAG) | 1.4
28 | CAAGACGCTTGGGTTCTAACCTGTTGCCT (site CTAGACGCTAG) | 1.34
29 | CAAGATGCTTGGGTTCTAACCTGTTGCCT (site CAAGATGCTAG) | 1.21
30 | CAAGATGCTTGGGTTCTAACCTGTTGCCT (site CACGATGCTAG) | 0.304
31 | CAAGATGCTTGGGTTCTAACCTGTTGCCT (site CAGGATGCTAG) | 0.222
32 | CAAGATGCTTGGGTTCTAACCTGTTGCCT (site CATGATGCTAG) | 0.366
33 | CAAGATTCTTGGGTTCTAACCTGTTGCCT (site CAAGATTCTAG) | 1.69
34 | CAAGATTCTTGGGTTCTAACCTGTTGCCT (site CCAGATTCTAG) | 0.71
35 | CAAGATTCTTGGGTTCTAACCTGTTGCCT (site CGAGATTCTAG) | 0
36 | CAAGATTCTTGGGTTCTAACCTGTTGCCT (site CTAGATTCTAG) | 0.6
37 | CAAGTGACTTGGGTTCTAACCTGTTGCCT (site CAAGTGACTAG) | 1.68
38 | CAAGTGACTTGGGTTCTAACCTGTTGCCT (site TCCTATGCTTA) | 0.129
39 | CAAGTGCCTTGGGTTCTAACCTGTTGCCT (site CAAGTGCCTAG) | 2.01
40 | CAAGTGCCTTGGGTTCTAACCTGTTGCCT (site CAAGTTCCTAG) | 0.064
41 | CAAGTTCCTTGGGTTCTAACCTGTTGCCT (site CAAGTGCCTAG) | 0.62
42 | CAAGTTCCTTGGGTTCTAACCTGTTGCCT (site CAAGTTCCTAG) | 1.03
43 | CAATACACTTGGGTTCTAACCTGTTGCCT (site CAATACACTAG) | 2.34
44 | CAATACACTTGGGTTCTAACCTGTTGCCT (site CCACACACTAG) | 0.0608

Row | Sequence | recombinant barcode read abundance (log10)
45 | CAATCGTCTTGGGTTCTAACCTGTTGCTT (site CAATCGTCTAA) | 0.629
46 | CAATCGTCTTGGGTTCTAACCTGTTGCTT (site GAATCTTCTAA) | 0.0659
47 | CAATCTGCTTGGGTTCTAACCTGTTGCCT (site CAATCTGCTAG) | 0.233
48 | CAATCTGCTTGGGTTCTAACCTGTTGCCT (site CACTCTGCTAG) | 0.0111
49 | CAATCTGCTTGGGTTCTAACCTGTTGCCT (site CAGTCTGCTAG) | 0.101
50 | CAATCTGCTTGGGTTCTAACCTGTTGCCT (site CATTCTGCTAG) | 0.0288
51 | CAATGCTCTTGGGTTCTAACCTGTTGCCT (site CAATGCTCTAG) | 1.84
52 | CAATGCTCTTGGGTTCTAACCTGTTGCCT (site CAGTGCTCTTG) | 0.113
53 | CAATGGACTTGGGTTCTAACCTGTTGCCT (site CAATGGACTAG) | 1.12
54 | CAATGGACTTGGGTTCTAACCTGTTGCCT (site CACTGGACTAG) | 0.0334
55 | CAATGGACTTGGGTTCTAACCTGTTGCCT (site CAGTGGACTAG) | 0.106
56 | CAATGGACTTGGGTTCTAACCTGTTGCCT (site CATTGGACTAG) | 0.103
57 | CAATGGTCTTGGGTTCTAACCTGTTGCTT (site CAATGGTCTAA) | 1.86
58 | CAATGGTCTTGGGTTCTAACCTGTTGCTT (site CAATGGTCTAC) | 1.64
59 | CAATGGTCTTGGGTTCTAACCTGTTGCTT (site CAATGGTCTAG) | 1.07
60 | CAATGGTCTTGGGTTCTAACCTGTTGCTT (site CAATGGTCTAT) | 1.14
61 | CAATTTCCTTGGGTTCTAACCTGTTGCAT (site CAATTTCCTAT) | 0.322
62 | CAATTTCCTTGGGTTCTAACCTGTTGCAT (site GCCAGCTCTCA) | 0.0829
63 | CACACGACTTGGGTTCTAACCTGTTGCTT (site CACACGACTAA) | 0.496
64 | CACACGACTTGGGTTCTAACCTGTTGCTT (site TGGTTACCTCC) | 0.0367
65 | CACACGCCTTGGGTTCTAACCTGTTGCCT (site CACACGCCTAG) | 0.278
66 | CACACGCCTTGGGTTCTAACCTGTTGCCT (site CTCACGCCTAA) | 0.0913

Row | Sequence | recombinant barcode read abundance (log10)
67 | CACATATCTTGGGTTCTAACCTGTTGCAT (site CACATATCTAT) | 1.49
68 | CACATATCTTGGGTTCTAACCTGTTGCAT (site CACATCTCTAG) | 0.123
69 | CACCAATCTTGGGTTCTAACCTGTTGCCT (site CACCAATCTAG) | 0.525
70 | CACCAATCTTGGGTTCTAACCTGTTGCCT (site CACGCATCTAG) | 0.269
71 | CACCAGCCTTGGGTTCTAACCTGTTGCAT (site AGGTCCGCTTA) | 0.167
72 | CACCAGCCTTGGGTTCTAACCTGTTGCAT (site CACCAGCCTAT) | 1.98
73 | CACCCCTCTTGGGTTCTAACCTGTTGCCG (site ATGAGGACTAC) | 0.0851
74 | CACCCCTCTTGGGTTCTAACCTGTTGCCG (site CACCCCTCTCG) | 2.44
75 | CACCGTCCTTGGGTTCTAACCTGTTGCAT (site CACCGTCCTAC) | 0.0846
76 | CACCGTCCTTGGGTTCTAACCTGTTGCAT (site CACCGTCCTAT) | 1.61
77 | CACCTGTCTTGGGTTCTAACCTGTTGCCG (site CACCTGACTCG) | 0.151
78 | CACCTGTCTTGGGTTCTAACCTGTTGCCG (site CACCTGTCTCG) | 1.94
79 | CACGCGTCTTGGGTTCTAACCTGTTGCTG (site CACGCGTCTCA) | 0.746
80 | CACGCGTCTTGGGTTCTAACCTGTTGCTG (site CACGCTTCTTA) | 0.0288
81 | CACGCTCCTTGGGTTCTAACCTGTTGCGT (site ACTTGAGCTCT) | 0.119
82 | CACGCTCCTTGGGTTCTAACCTGTTGCGT (site CACGCTCCTAC) | 0.656
83 | CACGGGTCTTGGGTTCTAACCTGTTGCTT (site CACGGGTCTAA) | 2.32
84 | CACGGGTCTTGGGTTCTAACCTGTTGCTT (site CTCCGGTCTAA) | 0.209
85 | CACTACCCTTGGGTTCTAACCTGTTGCTT (site AGGCCGTCTCC) | 0.0811
86 | CACTACCCTTGGGTTCTAACCTGTTGCTT (site CACTACCCTAA) | 1.24
